Test system: CFTR
Test: Transepithelial potential difference (TEPD) chloride conductance, Phase 2 study in nonsense-mutation-mediated cystic fibrosis
Type: in vivo, human
Protocol: The measurement of transepithelial potential difference (TEPD), also known as nasal potential difference, provides a sensitive evaluation of sodium and chloride transport directly in secretory epithelial cells via assessment of transepithelial bioelectric properties (Knowles et al., 1981, N. Engl. J. Med. 305(25):1489-95; Knowles et al., 1995, Hum. Gene Ther. 6:445). TEPD is performed in each nostril using standardized techniques (Standaert et al., 2004, Ped. Pulm. 37:385-92). In the procedure, a small plastic catheter is used to assess electrical differences across the outer cell membrane of nasal mucosa cells in the nostril. TEPD values are expressed in millivolts, or mV. A chloride conductance equal to or more electrically negative than −5.0 mV is generally considered to be in the normal range. […] TEPD assessments can also be made on rectal epithelial cells and lower respiratory epithelial cells. Because of the role of the CFTR protein in transporting chloride ions across cell membranes, and because of the absence of this protein, cystic fibrosis patients have an abnormal TEPD chloride conductance. As an endpoint, TEPD has the advantage that it can detect chloride transport changes that are a quantitative integration of the presence, functional activity, and apical location of the CFTR in airway cells. Furthermore, it is a direct measure of CFTR activity that is not likely to be affected by supportive or palliative treatments for CF (with the possible exception of systemically administered aminoglycoside antibiotics). Of importance is evidence that TEPD values can correlate with the degree of pulmonary dysfunction and radiographic abnormality (Ho et al., 1997, Eur. Respir. J. 10(9):2018-22; Fajac et al., 1998, Eur. Respir. J. 12(6):1295-300; Sermet-Gaudelus et al., 2005, Am. J. Respit. Crit. Care Med. 171(9):1026-1031). […] Under baseline conditions, TEPD-assessed chloride channel activity is very unlikely to normalize spontaneously in patients with CF; any observed improvements in TEPD-assessed chloride channel activity are expected to specifically denote pharmacological activity of CFTR-correcting therapies. Accordingly, it has become the primary endpoint in Phase 1-2 pharmacological and gene replacement studies aimed at correcting CFTR dysfunction (Peckham et al., 1995, AJ. Clin Sci (London). 89(3):277-84; Wilschanski et al., 2003, N. Engl. J. Med. 349(15):1433-41).
3-[5-(2-Fluoro-phenyl)-[1,2,4]oxadiazol-3-yl]-benzoic acid was provided in a formulation described herein.
Clinical endpoints were evaluated using the procedures set forth above. TEPD measurements were made prior to treatment and on days 14 and 28 of Cycle 1 and Cycle 2. Nasal mucosal curettage was collected from each nostril of each patient prior to treatment and on days 14 and 28 of Cycle 1 and Cycle 2. Pulmonary tests, including FEV1, FVC and MEF25-75, were measured prior to treatment, on day −1 of Cycle 2, on day 13 or 14 of Cycle 1 and day 13 or 14 of Cycle 2 in the study being conducted in Israel and the same parameters were measured prior to treatment and on day 13 or 14 of Cycle 2 in the study being conducted in the United States.
This is the average of the changes from the beginning to the end of the treatment period in TEPD chloride conductance within each study participant. For example, if the changes in TEPD chloride conductance within each of three participants were −7.0 mV, −2.0 mV and −9.0 mV, the mean change in TEPD chloride conductance among these participants would be −6.0 mV.
For purposes of the trials, a chloride conductance response is defined as a TEPD chloride conductance improvement of at least −5 mV. For example, in a patient with a TEPD chloride conductance value of +1.0 my at baseline and a TEPD chloride conductance value of −6.0 mV at the end of treatment, the TEPD chloride conductance improvement would be −7.0 mV, representing a chloride conductance response. […]

[1] = Higher dose level 10, 10, 20 mg/kg TID oral 14 days, 15 CF patients
[2] = Lower dose level 4, 4, 8 mg/kg TID oral 14 days, 15 CF patients

## O=C(O)c1cccc(-c2noc(-c3ccccc3F)n2)c1 [3-[5-(2-fluoro-phenyl)-[1,2,4]oxadiazol-3-yl]-benzoic acid]
15 CF patients
  TEPD chloride conductance in patients with different types of nonsense mutations within the CFTR gene: Improvements in TEPD chloride conductance
[1]
  Mean change in TEPD chloride conductance: Best of nostrils: −6.4 mV
  Mean change in TEPD chloride conductance: Mean of both nostrils: −4.4 mV
[2]
  Mean change in TEPD chloride conductance: Best of nostrils: −9.0 mV
  Mean change in TEPD chloride conductance: Mean of both nostrils: −6.7 mV
Lower 4, 4, 8 mg/kg versus higher 10, 10, 20 mg/kg
  Treatment effects at the lower and the higher dose levels (TEPD chloride conductance): not statistically significant
